{
  "source": "patent US12225904B2",
  "about": "“Phenylpyrazole compound and method for controlling plant disease” (SUMITOMO CHEMICAL COMPANY, LIMITED, priority 2019, dated 2025)",
  "tested_on": "soybean powdery mildew (Microsphaera diffusa)",
  "experiment": "Test Example 13: control test against soybean powdery mildew, foliar spray after inoculation",
  "assay_type": "in vivo",
  "conditions": "200 ppm foliar spray 2 days after inoculation; soybean cv Kurosengoku",
  "data": [
    {"smiles": "CCS(=O)(=O)n1ccc(-c2ccc(Cl)c([N+](=O)[O-])c2)n1", "note": "[compound 36]", "values": [
      {"measurement": "lesion area compared to the lesion area in an untreated soybean", "value": "≤ 30", "unit": "%"}
    ]}
  ]
}
